The text below walks through data of patent US11873298B2, “Compounds and uses thereof” (JANSSEN PHARMACEUTICA NV, priority 2017, dated 2024).

The target in assay [1] is T1, SCD1 (Homo sapiens, UniProt O00767).
T1 construct: host or cells: S. cerevisiae ole1Δ strain (W303 pdr1Δ pdr3Δ background), plasmid pRS316 with TDH3 promoter and CYC1 terminator
T1 sequence (O00767 1-359): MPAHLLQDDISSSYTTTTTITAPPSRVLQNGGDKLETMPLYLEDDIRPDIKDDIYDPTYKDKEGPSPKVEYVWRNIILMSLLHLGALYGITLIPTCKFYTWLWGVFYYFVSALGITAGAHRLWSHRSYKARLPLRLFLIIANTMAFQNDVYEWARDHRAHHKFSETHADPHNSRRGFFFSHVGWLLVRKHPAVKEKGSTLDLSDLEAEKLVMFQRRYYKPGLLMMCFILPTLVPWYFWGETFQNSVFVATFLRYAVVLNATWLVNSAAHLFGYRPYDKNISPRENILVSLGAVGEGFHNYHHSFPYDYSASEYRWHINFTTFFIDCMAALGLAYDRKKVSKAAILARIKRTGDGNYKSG
Nature of the assay: Growth inhibition of humanized yeast strain expressing SCD1 as sole desaturase. It is filed as cell-based. The note with it: humanized yeast strain expressing SCD1. The essentials: (§1)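 OD600 growth read-out. ole1Δ yeast, pdr1Δ pdr3Δ, with Ole1/SCD1/SCD5 on a plasmid; SX-Ura media throughout; 2× cell density 0.02 in CSM-Galactose; DMSO compound dilutions; humidified 30° C.; Ole1 stopped at 24 h, SCD1/SCD5 at 40 h.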

In assay [2] the target is T2, Ole1 (Saccharomyces cerevisiae, UniProt P21147).
T2 construct: expressed in transfected cells; host or cells: S. cerevisiae ole1Δ strain (W303 pdr1Δ pdr3Δ background), plasmid pRS316 with TDH3 promoter and CYC1 terminator
T2 sequence (P21147 1-510): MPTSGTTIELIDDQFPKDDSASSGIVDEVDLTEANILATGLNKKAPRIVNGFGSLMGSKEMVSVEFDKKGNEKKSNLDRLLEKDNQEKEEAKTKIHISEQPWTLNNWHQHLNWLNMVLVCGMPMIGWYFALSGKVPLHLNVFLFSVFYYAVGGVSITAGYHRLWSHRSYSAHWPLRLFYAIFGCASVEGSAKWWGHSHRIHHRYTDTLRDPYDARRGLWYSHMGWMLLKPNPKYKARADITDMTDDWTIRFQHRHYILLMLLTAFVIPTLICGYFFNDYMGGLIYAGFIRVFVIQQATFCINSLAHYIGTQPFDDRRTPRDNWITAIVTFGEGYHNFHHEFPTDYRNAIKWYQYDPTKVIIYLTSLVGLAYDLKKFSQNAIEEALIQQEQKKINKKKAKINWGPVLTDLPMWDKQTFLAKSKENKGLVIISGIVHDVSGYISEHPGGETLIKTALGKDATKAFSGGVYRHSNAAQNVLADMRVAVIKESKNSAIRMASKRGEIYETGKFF
Nature of the assay: Growth inhibition of yeast strain expressing Ole1 as sole desaturase. It is filed as cell-based. The conditions noted are these: yeast strain expressing Ole1 as sole desaturase. An outline of the steps:
as §1

Assay [3] addresses T3, SCD5 (Homo sapiens, UniProt Q86SK9).
T3 construct: host or cells: S. cerevisiae ole1Δ strain (W303 pdr1Δ pdr3Δ background), plasmid pRS316 with TDH3 promoter and CYC1 terminator
T3 sequence (Q86SK9 1-330): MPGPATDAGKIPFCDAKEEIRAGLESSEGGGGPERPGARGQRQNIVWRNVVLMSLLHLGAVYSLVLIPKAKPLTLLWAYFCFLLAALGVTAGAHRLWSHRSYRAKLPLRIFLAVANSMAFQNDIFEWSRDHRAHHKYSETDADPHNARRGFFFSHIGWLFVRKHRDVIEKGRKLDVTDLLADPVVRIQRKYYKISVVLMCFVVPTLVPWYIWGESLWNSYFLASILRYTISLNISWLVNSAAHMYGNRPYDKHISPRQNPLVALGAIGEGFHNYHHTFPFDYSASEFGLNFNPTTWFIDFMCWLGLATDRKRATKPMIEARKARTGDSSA
Nature of the assay: Growth inhibition of humanized yeast strain expressing SCD5 as sole desaturase. The class given is cell-based. The note with it: humanized yeast strain expressing SCD5. The essentials: as §1

Assay [4] concerns yeast strains expressing the human α-synuclein. Nature of the assay: Yeast α-synuclein toxicity rescue assay (OD600 growth). The conditions noted are these: 40 h; for EC50: read-out: α-Syn EC50; for Emax: read-out: α-Syn Emax.
Description: (§2) The induced expression of α-synuclein and ApoE4 confers cytotoxicity, thus enabling the identification of compounds that can restore cell viability. This instantaneous/synchronous induction of α-synuclein and ApoE4 can be achieved due to the following expression control. In glucose-containing media, gene expression from the GAL1 promoter is ‘off’ and actively repressed by additional epigenetic factors. In raffinose, expression is ‘off’, but the promoter not actively repressed. Upon transition to galactose-containing media, the promoter is instantaneously turned ‘on’ to achieve robust and synchronous induction of α-synuclein or ApoE4 expression. This highly regulated induction provides a robust window for the determination of both efficacy (amplitude of protective effect) and potency (concentration of protective effect) of cytoprotective compounds.
(§3) Re-suspended compound stocks were subsequently arrayed into 384 well compound plates using automated pipetting. All other wells not receiving stock compound were filled with 10 μL of 100% DMSO using an automated plate filler (Multidrop Combi). An 11 point, 2-fold serial dilution was then performed using the robotic platform. Compound assay plates were covered with foil and stored at −20° C. until use.
(§4) Each strain was handled according to standard protocols and cultured in media composed of CSM (complete synthetic media), YNB (yeast nitrogenous base), and a 2% (w/v) carbon source (either glucose, raffinose, or galactose).
(§5) In a standard yeast assay, a single-use aliquot of cells was thawed on ice and diluted into CSM/glucose (5 mL). Cultures were grown for 8 hours at 30° C. This pre-growth enables the yeast to exit the thaw and begin to grow without expressing aSyn or ApoE4. After 8 hours, cell density (OD600) was determined and cultures diluted to an OD600 of 0.01 in CSM/raffinose for an overnight culture phase at 30° C. During this period, the active glucose repression of the GAL1 promoter was relieved; however, expression of the α-Syn/ApoE4 genes were not yet induced. After ˜16 hours of growth, cultures attain an OD600 of 0.4-0.8 and were ready to apply to assay plates containing compound.
(§6) Compound profiling assays were executed in clear-bottom 384 well plates. First, compound plates were thawed at room temperature for 45′, centrifuged at 1,000×g for 1 minute, and the foil removed. Clear 384 well assay plates were then filled with 15 μL of CSM/galactose. […] The pin tool was washed iteratively with both 50% DMSO and 100% ethanol between each assay plate. After delivering compound to each assay plate, the overnight CSM/raffinose aSyn or ApoE4 cultures were added at a 2X cell density (0.04 for aSyn and 0.08 for ApoE4) in CSM/galactose to achieve a final assay OD600 of 0.02 and 0.04 for aSyn and ApoE, respectively. The cultures (15 μL per well) were then dispensed to the compound -containing 384 well assay plates using an automated plate filler. Plates were incubated in a humidified 30° C. incubator for 40 or 24 hours for aSyn and ApoE4, respectively. The ODsoo of each assay plate was then read with a microplate reader (e.g., Perkin Elmer Envision).
(§7) The efficacy and potency of compounds were calculated according to the following. Raw data (OD600 values) were first background corrected to account for OD600 contributed by the plate and media itself. The efficacy (percent above DMSO, herein referred to as “Emax”) was calculated according to the equation: (Experimental well−DMSO control well)/(DMSO control well)*100. […] Normalized dose-response data was fit with a logistic regression curve using Spotfire (TIBCO), or similar curve-fitting software package. EC50 values were then reported along with EMax to provide both efficacy and potency measures for each analog and enable further compound design.
Assay [5] has as its system yeast strains expressing the human ApoE4. Nature of the assay: Yeast ApoE4 toxicity rescue assay (OD600 growth). The note with it: 24 h; for EC50: read-out: ApoE4 EC50; for Emax: read-out: ApoE4 Emax.
Description: as §2, §3, §4, §5, §6, §7

Where only a bound is given, the exact number is not on record here.

Turning to `CCOc1ccc(-c2noc(C3CCN(C(=O)NC4CC4c4ccccc4)CC3)n2)cc1OC` (stereo not shown) [compound 80], the IC50 in assay [1], in assay [2] and in assay [3] was greater than 45 µM each time. Further, the values for the EC50 in assay [4] and in assay [5] were 3.32 µM and 6.01 µM, respectively. In addition, the results for the Emax in assay [4] and in assay [5] were 188% and 262%, respectively.
`COc1ccc(-c2noc(C3CCN(C(=O)[C@H]4CC(=O)N(c5ccc(C)c(C)c5)C4)CC3)n2)cc1OC` (single isomer, unassigned) [compound 67]: the IC50 in assay [1] is 40.7 µM; in assay [2], greater than 45 µM; in assay [3], greater than 45 µM. Moreover, the concentration giving a half-maximal response (EC50) turned out to be 7.38 µM in assay [4] and 17.4 µM in assay [5]. For the same compound, the Emax in assay [4] amounted to 255%; in assay [5] it was 420%.
Turning to `COc1ccc(-c2noc(C3CCN(C(=O)C(C)NC(=O)c4ccccc4)CC3)n2)cc1OC` (stereo not shown) [Compound 28], in assay [1], the IC50 is greater than 45 µM and the “SCD1 % Max Inhibition” value amounted to 98.15%. Besides, in assay [2], the concentration for half-maximal inhibition (IC50) was greater than 45 µM and the “OLE1 % Max Inhibition” value was 4.80%. For the same compound, in assay [3], the IC50 is greater than 45 µM and the “SCD5 % Max Inhibition” value was determined as 79.98%. Moreover, in assay [4], the 50% effective concentration (EC50) came out at 0.066 µM and the Emax is 576%. Besides, in assay [5], the EC50 stood at 1.59 µM and the Emax was determined as 836%.
On to `COc1ccc(-c2noc(C3CCN(C(=O)[C@@H]4CC(=O)N(c5ccc(C)c(C)c5)C4)CC3)n2)cc1` (single isomer, unassigned) [Compound 63], for which, in assay [1], the IC50 was found to be 33.7 µM and the “SCD1 % Max Inhibition” value is listed as 62.04%. Also, in assay [2], the IC50 was greater than 45 µM and the “OLE1 % Max Inhibition” value amounted to 101.06%. In assay [3], the half-inhibitory concentration (IC50) was greater than 45 µM and the “SCD5 % Max Inhibition” value is reported as 9.39%. In addition, in assay [4], the EC50 came out at 17.2 µM and the Emax turned out to be 68%. Also, in assay [5], the concentration for a half-maximal effect (EC50) was 13.4 µM and the Emax came out at 250%.
For the compound `COc1cccc(-c2noc(C3CCN(C(=O)CNC(=O)c4ccc(C)c(C)c4)CC3)n2)c1` [compound 17], the IC50 in assay [1], in assay [2] and in assay [3] was greater than 45 µM throughout. For the same compound, in assay [4], the EC50 turned out to be 17.4 µM. Besides, the values for the Emax in assay [4] and in assay [5] were 330% and 246%, respectively.
Take `O=C(NC1CC1c1ccccc1)N1CCC(c2nc(-c3ccc4ccccc4n3)no2)CC1` (stereo not shown) [compound 82]: in assay [5], the EC50 amounted to 16.8 µM and the Emax amounted to 40%.
`COc1ccc(-c2noc(C3CCN(C(=O)Cc4cncc(C)n4)CC3)n2)cc1OC` [Compound 45]: in assay [4], the concentration for a half-maximal effect (EC50) is 26 µM and the Emax came out at 121%. Moreover, in assay [5], the concentration giving a half-maximal response (EC50) amounted to 29.3 µM and the Emax turned out to be 19%.
Consider `COc1ccc(-c2noc(C3CCN(C(=O)C4CC(=O)N(c5ccccc5)C4)CC3)n2)cc1OC` (stereo not shown) [compound 18], for which the IC50 in assay [2] and in assay [3] was greater than 45 µM each time. In addition, the EC50 is 0.266 µM in assay [4] and 1.51 µM in assay [5]. The Emax worked out at 452% in assay [4] and 826% in assay [5].
For the compound `COc1ccc(-c2noc(C3CCN(C(=O)[C@H]4CC(=O)N(c5ccccc5)C4)CC3)n2)cc1OC` [compound 65], the half-maximal inhibitory concentration (IC50) in assay [2] is greater than 45 µM. Moreover, the half-maximal effective concentration (EC50) in assay [4] came to 0.036 µM; in assay [5], 0.987 µM. The figures for the Emax in assay [4] and in assay [5] were 643% and 779%, respectively.
Consider `CCOc1ccc(-c2noc(C3CCN(C(=O)C4CC(=O)N(c5ccccc5)C4)CC3)n2)cc1OC` (stereo not shown) [compound 84], for which, in assay [4], the EC50 came to 0.06 µM and the Emax was found to be 463%. For the same compound, in assay [5], the 50% effective concentration (EC50) worked out at 0.956 µM and the Emax was found to be 866%.
`COc1ccc(-c2noc(C3CCN(C(=O)[C@@H]4CC(=O)N(c5ccc(C)c(C)c5)C4)CC3)n2)cc1OC` [compound 68] showed an IC50 in assay [2] greater than 45 µM. Moreover, the half-maximal effective concentration (EC50) in assay [4] came out at 1.86 µM; in assay [5] it was 3.12 µM. Besides, the Emax in assay [4] worked out at 652%; in assay [5], 775%.
For the compound `COc1ccc(-c2noc(C3CCN(C(=O)COc4cc(O)c5c(c4)OC(C)(C)CC5=O)CC3)n2)cc1OC` [compound 77], the Emax stood at 345% in assay [4] and 436% in assay [5].
In the case of `COc1ccc(-c2noc(C3CCN(C(=O)[C@@H]4CC(=O)N(c5ccccc5)C4)CC3)n2)cc1OC` [compound 66], in assay [2], the IC50 is greater than 45 µM. In assay [4], the EC50 worked out at 11.1 µM and the Emax was determined as 350%. In addition, in assay [5], the 50% effective concentration (EC50) was found to be 21.2 µM and the Emax is 790%.
Consider `COc1ccc(-c2nnc(C3CCN(C(=O)CNC(=O)c4ccccc4)CC3)o2)cc1OC` [Compound 39], for which, in assay [1], the IC50 is greater than 45 µM and the “SCD1 % Max Inhibition” value worked out at 77.01%. Moreover, in assay [2], the IC50 was greater than 45 µM and the “OLE1 % Max Inhibition” value was found to be 110.89%. In addition, in assay [3], the half-inhibitory concentration (IC50) is greater than 45 µM and the “SCD5 % Max Inhibition” value amounted to 79.10%. For the same compound, in assay [4], the half-maximal effective concentration (EC50) amounted to 18.1 µM and the Emax worked out at 216%.
As to `COc1ccc(-c2noc(C3CCN(C(=O)CN(C)C(=O)c4ccccc4)CC3)n2)cc1OC` [compound 22], the concentration for half-maximal inhibition (IC50) in assay [2] was 40.5 µM; in assay [3], 30 µM. Besides, in assay [4], the concentration for a half-maximal effect (EC50) is 8.42 µM. For the same compound, the Emax in assay [4] stood at 334%; in assay [5], 372%.
Consider `COc1ccc(-c2noc(C3CCN(C(=O)c4ccc(C(C)C)cc4)CC3)n2)cc1OC` [Compound 127], for which, in assay [1], the IC50 was greater than 45 µM and the “SCD1 % Max Inhibition” value stood at 66.46%. Besides, in assay [2], the IC50 is greater than 45 µM and the “OLE1 % Max Inhibition” value is 99.27%. In assay [3], the 50% inhibitory concentration (IC50) is greater than 45 µM and the “SCD5 % Max Inhibition” value is listed as 88.59%. Also, in assay [4], the EC50 is 7.42 µM and the Emax came to 349%.
Consider `Cc1nn(C)c2cc(-c3noc(C4CCN(C(=O)[C@@H]5CN(c6ccccc6)C(=O)O5)CC4)n3)ccc12` [Compound 149], for which, in assay [1], the half-maximal inhibitory concentration (IC50) is greater than 45 µM and the “SCD1 % Max Inhibition” value was determined as 69.75%. For the same compound, in assay [2], the half-maximal inhibitory concentration (IC50) is greater than 45 µM and the “OLE1 % Max Inhibition” value is given as 90.68%. In addition, in assay [3], the 50% inhibitory concentration (IC50) is greater than 45 µM and the “SCD5 % Max Inhibition” value amounted to 38.72%. Besides, in assay [4], the half-maximal effective concentration (EC50) came to 0.06 µM and the Emax stood at 458%.
For `CC1(C)CC(=O)c2c(O)cc(OCC(=O)N3CCC(c4nc(-c5ccccc5)no4)CC3)cc2O1` [compound 76], in assay [4], the EC50 is 9.92 µM and the Emax amounted to 76%. For the same compound, in assay [5], the 50% effective concentration (EC50) was found to be 14.8 µM and the Emax worked out at 162%.
On to `Cn1ncc2ccc(-c3noc(C4CCN(C(=O)CNC(=O)c5ccccc5)CC4)n3)cc21` [compound 94], for which the IC50 in assay [1] is greater than 45 µM; in assay [2], greater than 45 µM; in assay [3], 39.3 µM. In assay [4], the concentration for a half-maximal effect (EC50) turned out to be 0.04 µM.
Take `CCOc1ccc(-c2noc(C3CCN(C(=O)CNC(=O)c4ccccc4)CC3)n2)nc1OC` [Compound 107]: in assay [1], the IC50 is greater than 45 µM and the “SCD1 % Max Inhibition” value stood at 73.32%. Besides, in assay [2], the half-maximal inhibitory concentration (IC50) is greater than 45 µM and the “OLE1 % Max Inhibition” value is given as 4.55%. Besides, in assay [3], the IC50 is greater than 45 µM and the “SCD5 % Max Inhibition” value was 74.80%. Further, in assay [4], the 50% effective concentration (EC50) stood at 2.9 µM and the Emax was determined as 312%.
